# Article PMC1310925, “Organotins Disrupt the 11β-Hydroxysteroid Dehydrogenase Type 2–Dependent Local Inactivation of Glucocorticoids” (Environmental Health Perspectives, 2005)
# Legend:
# [1] = molecular target: T1, 11β-HSD2 (Homo sapiens, UniProt P80365); assay: 11β-HSD2 activity in lysates of stably transfected HEK-293 cells (cortisol to cortisone); type: biochemical; design: expressed in transfected cells; host or cells: HEK-293, stably transfected; conditions: for Vmax of 11β-HSD2 in presence of inhibitor: control 2.14 ± 0.32
# T1 sequence (P80365 1-405): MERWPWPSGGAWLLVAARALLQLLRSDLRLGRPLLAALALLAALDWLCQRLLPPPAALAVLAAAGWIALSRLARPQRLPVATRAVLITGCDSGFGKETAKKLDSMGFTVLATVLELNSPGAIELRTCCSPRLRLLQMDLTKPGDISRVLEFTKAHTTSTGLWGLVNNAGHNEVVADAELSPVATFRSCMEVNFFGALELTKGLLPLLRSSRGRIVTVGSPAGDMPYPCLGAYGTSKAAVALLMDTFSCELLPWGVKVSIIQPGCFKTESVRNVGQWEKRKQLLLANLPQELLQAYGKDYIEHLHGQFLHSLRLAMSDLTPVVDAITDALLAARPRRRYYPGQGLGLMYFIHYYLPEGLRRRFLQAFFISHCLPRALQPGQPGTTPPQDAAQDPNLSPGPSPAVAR
# Experimental: Cells were rinsed 3 times with phosphate-buffered saline (PBS) and resuspended in 2 mL ice-cold buffer TS2 (100 mM NaCl, 1 mM EGTA, 1 mM EDTA, 1 mM MgCl2, 250 mM sucrose, 20 mM Tris-HCl, pH 7.4). Aliquots of the cell suspension were frozen at −20°C, retaining full enzymatic activity for at least 3 months. For determinationof 11β-HSD2 activity, aliquots were thawed, sonicated, and diluted 1:12 in buffer TS2 (4°C). We carried out reactions in a final volume of 20 μL containing 10 nCi [1,2,6,7-^3H]-cortisol, 400-μM NAD^+, and different concentrations of unlabeled cortisol. […] Incubations were for 10 min at 37°C.
# [2] = molecular target: T1, 11β-HSD2; assay: 11β-HSD2 activity in intact stably transfected HEK-293 cells; type: cell-based; design: expressed in transfected cells; host or cells: HEK-293, stably transfected; conditions: for IC50: HEK-293 stably transfected, 40 nM cortisol, 2 hr; for 11β-HSD2 activity in intact cells, compound alone: concentrations 50% below their IC50 value
# [3] = molecular target: T2, 17β-HSD1 (Homo sapiens, UniProt P14061); assay: 17β-HSD1 activity in cell lysates (estrone to estradiol); type: biochemical; conditions: for inhibition of 17β-HSD1: lysate; for IC50: lysates of transfected HEK-293 cells, 200 nM estrone, NADPH, read-out: IC50 17β-HSD1, cell lysate
# T2 construct: expressed in transfected cells; host or cells: HEK-293, calcium-phosphate transfection, lysate
# T2 sequence (P14061 1-328): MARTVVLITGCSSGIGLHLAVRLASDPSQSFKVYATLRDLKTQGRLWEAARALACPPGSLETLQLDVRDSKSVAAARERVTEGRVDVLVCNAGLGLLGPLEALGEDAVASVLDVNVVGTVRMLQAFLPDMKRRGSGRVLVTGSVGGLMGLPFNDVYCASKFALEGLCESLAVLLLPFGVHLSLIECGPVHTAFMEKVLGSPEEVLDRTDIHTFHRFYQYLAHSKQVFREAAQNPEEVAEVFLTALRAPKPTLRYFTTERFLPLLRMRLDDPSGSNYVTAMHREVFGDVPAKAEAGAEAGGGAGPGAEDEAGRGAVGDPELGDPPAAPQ
# Experimental: (§1) For determination of 11β-HSD1, 17β-HSD1, and 17β-HSD2 activity, HEK-293 cells transfected by the calcium-phosphate precipitation method were harvested 48 hr later, washed with PBS, and centrifuged for 3 min at 150 × g. Supernatants were removed, cell pellets quick-frozen in a dry ice ethanol bath, and stored at −70°C. For assaying 11β-HSD1, we dissolved pellets in TS2 buffer; for 17β-HSD1 or 17β-HSD2, we used a buffer containing 50 mM potassium phosphate, 20% glycerol, and 1 mM EDTA. We measured 11β-HSD1 oxoreductase activity as described recently ([Atanasov et al. 2004]), using radiolabeled cortisone as substrate. 17β-HSD1 and 17β-HSD2 activities were measured in the presence of radiolabeled estrone or estradiol and unlabeled steroid at final concentrations of 200 nM and 500 μM NADPH or NAD^+, respectively.
# [4] = molecular target: T3, 17β-HSD2 (Homo sapiens, UniProt P37059); assay: 17β-HSD2 activity in cell lysates (estradiol to estrone); type: biochemical; conditions: for IC50: lysates of transfected HEK-293 cells, 200 nM estradiol, NAD+, read-out: IC50 17β-HSD2, cell lysate
# T3 construct: expressed in transfected cells; host or cells: HEK-293, calcium-phosphate transfection, lysate
# T3 sequence (P37059 1-387): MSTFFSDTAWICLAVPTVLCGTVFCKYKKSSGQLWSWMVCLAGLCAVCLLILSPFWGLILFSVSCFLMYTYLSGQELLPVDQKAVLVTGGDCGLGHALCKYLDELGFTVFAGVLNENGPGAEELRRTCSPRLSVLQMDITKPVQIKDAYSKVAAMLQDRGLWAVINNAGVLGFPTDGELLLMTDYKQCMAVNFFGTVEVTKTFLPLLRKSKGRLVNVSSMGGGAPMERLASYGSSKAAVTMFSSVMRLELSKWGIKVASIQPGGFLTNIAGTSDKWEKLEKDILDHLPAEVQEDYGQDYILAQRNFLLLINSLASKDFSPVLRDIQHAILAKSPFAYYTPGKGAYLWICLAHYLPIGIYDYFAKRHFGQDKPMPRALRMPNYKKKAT
# Experimental: as §1
# [5] = molecular target: T4, 11β-HSD1 (Homo sapiens, UniProt P28845); assay: 11β-HSD1 oxoreductase activity in cell lysates (cortisone to cortisol); type: biochemical; conditions: for inhibition of 11β-HSD1-dependent conversion of cortisone to cortisol: concentrations up to 200 μM, lysate; for IC50: lysates of transfected HEK-293 cells, cortisone as substrate, read-out: IC50 11β-HSD1, cell lysate
# T4 construct: expressed in transfected cells; host or cells: HEK-293, calcium-phosphate transfection, lysate
# T4 sequence (P28845 whole entry): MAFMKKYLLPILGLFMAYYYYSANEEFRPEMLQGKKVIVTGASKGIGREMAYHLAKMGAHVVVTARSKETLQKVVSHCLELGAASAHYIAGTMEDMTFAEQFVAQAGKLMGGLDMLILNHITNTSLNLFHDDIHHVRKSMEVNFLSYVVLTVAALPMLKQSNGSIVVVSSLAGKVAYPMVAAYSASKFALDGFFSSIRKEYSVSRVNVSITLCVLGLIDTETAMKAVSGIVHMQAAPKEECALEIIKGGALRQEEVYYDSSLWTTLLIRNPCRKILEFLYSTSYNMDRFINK
# Experimental: as §1
# [6] = molecular target: 11β-HSD2 Cys^127Ser (Homo sapiens, UniProt P80365, C127S); conditions: read-out: TBT IC50 ± SD, Cys^127Ser; mutant Cys^127Ser, lysate
# Sequence of 11β-HSD2 Cys^127Ser (P80365 whole entry C127S): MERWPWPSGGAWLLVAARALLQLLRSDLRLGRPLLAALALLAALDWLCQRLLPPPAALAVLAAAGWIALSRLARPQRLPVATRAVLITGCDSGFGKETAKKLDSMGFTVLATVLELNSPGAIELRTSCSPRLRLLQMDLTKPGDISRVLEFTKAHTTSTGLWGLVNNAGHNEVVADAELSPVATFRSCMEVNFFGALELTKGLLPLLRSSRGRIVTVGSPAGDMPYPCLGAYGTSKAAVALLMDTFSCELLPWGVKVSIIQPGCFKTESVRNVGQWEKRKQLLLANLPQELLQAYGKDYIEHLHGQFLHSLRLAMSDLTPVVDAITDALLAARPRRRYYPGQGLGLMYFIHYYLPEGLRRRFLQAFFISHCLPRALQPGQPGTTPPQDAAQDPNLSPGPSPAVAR
# Experimental: (§2) Cells were rinsed 3 times with phosphate-buffered saline (PBS) and resuspended in 2 mL ice-cold buffer TS2 (100 mM NaCl, 1 mM EGTA, 1 mM EDTA, 1 mM MgCl2, 250 mM sucrose, 20 mM Tris-HCl, pH 7.4). […] For determinationof 11β-HSD2 activity, aliquots were thawed, sonicated, and diluted 1:12 in buffer TS2 (4°C). We carried out reactions in a final volume of 20 μL containing 10 nCi [1,2,6,7-^3H]-cortisol, 400-μM NAD^+, and different concentrations of unlabeled cortisol. […] Incubations were for 10 min at 37°C.
# (§3) All constructs were verified by sequencing and recloned into pcDNA3 expression vector. Wild-type and mutant enzymes were expressed in HEK-293 cells, lysates were prepared, and proteins were separated by sodium dodecyl sulfate (SDS) gel electrophoresis. Proteins were transferred to nitrocellulose, and expression levels of 11β-HSD2 constructs were detected using mouse monoclonal antibody M2 raised against the FLAG epitope and visualized with a horseradish peroxidase conjugated anti-mouse antibody and enhanced chemiluminescence Western kit (Pierce, Rockford, IL, USA). After detection of 11β-HSD2 constructs, nitrocellulose membranes were stripped and incubated with rabbit polyclonal anti-actin IgG (Santa Cruz Biotechnology Inc., Santa Cruz, CA, USA) and horseradish peroxidase–conjugated goat anti-rabbit IgG to adjust for the amount of proteins loaded on the gel. The expression of mutant relative to wild-type enzyme was adjusted for calculation of kinetic parameters.
# [7] = molecular target: 11β-HSD2 Cys^128Ser (Homo sapiens, UniProt P80365, C128S); conditions: read-out: TBT IC50 ± SD, Cys^128Ser; mutant Cys^128Ser, lysate
# Sequence of 11β-HSD2 Cys^128Ser (P80365 whole entry C128S): as the sequence (P80365 whole entry C127S) above, with S127C, C128S counted along it
# Experimental: as §2, §3
# [8] = molecular target: 11β-HSD2 Cys^188Ser (Homo sapiens, UniProt P80365, C188S); conditions: read-out: TBT IC50 ± SD, Cys^188Ser; mutant Cys^188Ser, lysate
# Sequence of 11β-HSD2 Cys^188Ser (P80365 whole entry C188S): as the sequence (P80365 whole entry C127S) above, with S127C, C188S counted along it
# Experimental: as §2, §3
# [9] = molecular target: 11β-HSD2 Cys^248Ser (Homo sapiens, UniProt P80365, C248S); conditions: read-out: TBT IC50 ± SD, Cys^248Ser; mutant Cys^248Ser, lysate
# Sequence of 11β-HSD2 Cys^248Ser (P80365 whole entry C248S): as the sequence (P80365 whole entry C127S) above, with S127C, C248S counted along it
# Experimental: as §2, §3
# [10] = molecular target: 11β-HSD2 Cys^264Ser (Homo sapiens, UniProt P80365, C264S); conditions: lysate
# Sequence of 11β-HSD2 Cys^264Ser (P80365 whole entry C264S): as the sequence (P80365 whole entry C127S) above, with S127C, C264S counted along it
# Experimental: as §2, §3
# [11] = molecular target: 11β-HSD2 Cys^371Ser (Homo sapiens, UniProt P80365, C371S); conditions: read-out: TBT IC50 ± SD, Cys^371Ser; mutant Cys^371Ser, lysate
# Sequence of 11β-HSD2 Cys^371Ser (P80365 whole entry C371S): as the sequence (P80365 whole entry C127S) above, with S127C, C371S counted along it
# Experimental: as §2, §3
# [12] = molecular target: 11β-HSD2 Cys^48Ser (Homo sapiens, UniProt P80365, C48S); conditions: read-out: TBT IC50 ± SD, Cys^48Ser; mutant Cys^48Ser, lysate
# Sequence of 11β-HSD2 Cys^48Ser (P80365 whole entry C48S): as the sequence (P80365 whole entry C127S) above, with C48S, S127C counted along it
# Experimental: as §2, §3
# [13] = molecular target: T1, 11β-HSD2; conditions: endogenous enzyme, intact cells
# Experimental: (§4) SW-620 (human colorectal adenocarcinoma) cells and JEG-3 (human choriocarcinoma) cells were cultured according to the recommendations of the supplier (American Type Culture Collection, Manassas, VA, USA).
# (§5) HEK-293 cells stably transfected with 11β-HSD2 (25,000 cells per well) were seeded 24 hr prior to the assay in poly-D-lysine coated 96-well Biocoat plates (Becton Dickinson, Basel, Switzerland). The medium was carefully removed, followed by the addition of 30 μL fresh medium, 10 μL medium containing various concentrations of organotins, and 10 μL radiolabeled cortisol. The reaction volume was 50 μL, with a final cortisol concentration of 40 nM. The cells were incubated for 2 hr at 37°C under 5% CO2. We stopped reactions by adding an excess of unlabeled cortisone and cortisol in methanol, and separated steroids using thin-layer chromatography, followed by scintillation counting. 11β-HSD2 activity in JEG-3, SW-620, and RCCD-2 cells was measured similarly by adjusting the cell density and reaction time to obtain a maximal conversion of cortisol between 15 and 25%.
# [14] = molecular target: 11β-HSD2 (Rattus norvegicus, UniProt P50233)
# Sequence of 11β-HSD2 (Rattus norvegicus, UniProt P50233) (P50233 whole entry): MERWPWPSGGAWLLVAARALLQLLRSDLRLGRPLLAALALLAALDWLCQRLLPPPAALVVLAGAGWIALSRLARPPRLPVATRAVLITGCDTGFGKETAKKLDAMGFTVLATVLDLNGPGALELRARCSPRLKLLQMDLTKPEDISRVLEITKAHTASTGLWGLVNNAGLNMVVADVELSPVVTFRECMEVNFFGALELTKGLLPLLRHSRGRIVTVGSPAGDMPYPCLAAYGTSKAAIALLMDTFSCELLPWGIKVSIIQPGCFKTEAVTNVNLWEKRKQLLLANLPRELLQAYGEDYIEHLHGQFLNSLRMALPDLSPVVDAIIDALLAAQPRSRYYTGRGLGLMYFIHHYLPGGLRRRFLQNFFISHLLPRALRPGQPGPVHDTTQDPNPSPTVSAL
# Experimental: as §4, §5
# [15] = ref McVey and Cooke 2003; cited from earlier work
# [16] = 40 nM cortisol, 400 μM NAD+, 10 min 37°C, read-out: IC50 11β-HSD2, cell lysate
smiles,measurement,setting,value
"N[C@@H](CCC(=O)N[C@@H](CS)C(=O)NCC(=O)O)C(=O)O [glutathione, reference compound]",prevention of organotin-dependent inhibition of 11β-HSD2,[1]; not shown,not able to prevent
"O[C@@H](CS)[C@@H](O)CS (racemic) [DTT, dithiothreitol, reference compound]",effect on 11β-HSD2 enzymatic activity,"[1]; DTT alone, lysate",did not significantly alter enzymatic activity
"CCC[CH2][Sn][CH2]CCC [DBT, dibutyltin]",IC50,[1]; [16],1950 ± 270 nM
same,IC50,[2],5030 ± 700 nM
same,"11β-HSD2 activity in intact cells, compound alone",[2],reduced 11β-HSD2 activity only slightly
"CCC[CH2][Sn]([CH2]CCC)[CH2]CCC [TBT, tributyltin]",inhibition of 17β-HSD1,[3],neither TBT nor TPT inhibited
same,IC50,[3],> 200000 nM
same,IC50,[4],> 200000 nM
same,inhibition of 11β-HSD1-dependent conversion of cortisone to cortisol,[5],did not inhibit
same,IC50,[5],> 200000 nM
same,IC50,[6],2230 ± 330 nM
same,IC50,[7],1870 ± 530 nM
same,IC50,[8],1950 ± 380 nM
same,IC50,[9],2070 ± 470 nM
same,increase in IC50 with Cys^264Ser versus wild-type,[10],2 fold
same,IC50,"[10]; read-out: TBT IC50 ± SD, Cys^264Ser, mutant Cys^264Ser",4200 ± 440 nM
same,IC50,[11],2170 ± 500 nM
same,IC50,[12],2110 ± 330 nM
same,inhibition of 11β-HSD2 in SW-620 cells compared with HEK-293 cells,[13]; colon-derived,highly similar to that observed in HEK-293 cells
same,inhibition of 11β-HSD2 in JEG-3 cells compared with HEK-293 cells,[13]; placenta-derived,highly similar to that observed in HEK-293 cells
same,stronger inhibition in RCCD-2 cells than in HEK-293 cells,[14]; intact cells,approximately 2 fold
same,IC50,"[14]; read-out: IC50 11β-HSD2 in intact RCCD-2 cells, endogenous enzyme, rat renal cortical collecting duct cells",830 ± 230 nM
same,toxic daily intake,[15],0.25 μg/kg body weight
same,IC50,[1]; [16],1900 ± 660 nM
same,increase of apparent Km,[1]; 2 μM TBT versus control,2 fold
same,change of inhibitory effect upon preincubation,"[1]; 2 μM TBT, preincubation 5 or 10 min, lysate",the changes did not reach significance
same,Vmax of 11β-HSD2 in presence of inhibitor,[1]; 2 μM TBT,1.66 ± 0.40 nmol/h/mg
same,increase of apparent Km,[1]; 3 μM TBT versus control,3 fold
same,Vmax of 11β-HSD2 in presence of inhibitor,[1]; 3 μM TBT,1.48 ± 0.48 nmol/h/mg
same,effect of dilution of enzyme-inhibitor complex on relative inhibition,[1]; 2-fold and 4-fold dilution of the EI complex,proportional decrease of the relative inhibitory effect
same,IC50,"[1]; Table 2, wild-type enzyme, lysate, read-out: TBT IC50 ± SD, wild-type 11β-HSD2",1900 ± 460 nM
same,mode of inhibition of 11β-HSD2,[1]; from change of Km and Vmax with TBT,mixed-competitive mode of inhibition
same,IC50,[2],1520 ± 430 nM
same,"11β-HSD2 activity in intact cells, compound alone",[2],reduced 11β-HSD2 activity only slightly
"c1cc[c]([Sn][c]2ccccc2)cc1 [DPT, diphenyltin]",IC50,[1]; [16],1420 ± 170 nM
same,IC50,[2],2890 ± 590 nM
same,"11β-HSD2 activity in intact cells, compound alone",[2],reduced 11β-HSD2 activity only slightly
"c1cc[c]([Sn]([c]2ccccc2)[c]2ccccc2)cc1 [TPT, triphenyltin]",inhibition of 17β-HSD1,[3],neither TBT nor TPT inhibited
same,IC50,[3],> 200000 nM
same,IC50 for 17β-HSD2 relative to IC50 for 11β-HSD2,[4]; lysates,6 fold
same,IC50,[4],19000 ± 3000 nM
same,inhibition of 11β-HSD1-dependent conversion of cortisone to cortisol,[5],did not inhibit
same,IC50,[5],> 200000 nM
same,IC50,[1]; [16],3190 ± 730 nM
same,IC50,[2],990 ± 240 nM
same,"11β-HSD2 activity in intact cells, compound alone",[2],reduced 11β-HSD2 activity only slightly
